{"source": "ChEMBL document CHEMBL5338749", "about": "“Rapid Elaboration of Fragments into Leads Applied to Bromodomain-3 Extra-Terminal Domain” (J Med Chem, 2023)", "key": {"[1]": {"biological_target": "T1, Bromodomain-containing protein 3 (Homo sapiens, UniProt Q15059)", "assay": "Binding affinity to recombinant BRD3-ET domain (unknown origin) expressed in Escherichia coli Rosetta (DE3) pLysS assessed as dissociation constant by 1H- NMR analysis"}, "[2]": {"biological_target": "T1, Bromodomain-containing protein 3", "assay": "Binding affinity to recombinant BRD3-ET domain (unknown origin) expressed in Escherichia coli Rosetta (DE3) pLysS assessed as dissociation constant by 19F- NMR analysis"}, "[3]": {"biological_target": "T1, Bromodomain-containing protein 3", "assay": "Binding affinity to biotinylated BRD3-ET domain (unknown origin) expressed in Escherichia coli Rosetta (DE3) pLysS assessed as dissociation constant at 4 degreeC by SPR analysis"}, "[4]": {"biological_target": "T1, Bromodomain-containing protein 3", "assay": "Binding affinity to biotinylated BRD3-ET domain (unknown origin) expressed in Escherichia coli Rosetta (DE3) pLysS assessed as dissociation off-rate constant at 4 degreeC by SPR analysis"}, "[5]": {"biological_target": "T1, Bromodomain-containing protein 3", "assay": "Binding affinity to 15N-labeled recombinant BRD3-ET domain (unknown origin) expressed in Escherichia coli Rosetta (DE3) pLysS assessed as dissociation constant by […] HSQC NMR analysis"}}, "note": "Several values for one entry are separate records, joined by “and”; a condition that tells them apart may be missing. Equal entries are not always repeated."}
{"smiles": "CC(C)C[C@H](N)CC(=O)NC1CCCc2c1[nH]c1ccc(F)cc21", "note": "(stereo not given in full) [listing 1 of 3 here]", "values": [{"measurement": "Kd", "setting": "[1]", "result": 39, "unit": "µM"}]}
{"smiles": "Fc1ccc2[nH]c3c(c2c1)CCCC3NCC1CCNCC1", "note": "(stereo not given) [listing 1 of 3 here]", "values": [{"measurement": "Kd", "setting": "[2]", "result": 22, "unit": "µM"}, {"measurement": "Kd", "setting": "[1]", "result": 61, "unit": "µM"}]}
{"smiles": "O=C(CC1CCCNC1)NC1CCCc2c1[nH]c1ccc(F)cc21", "note": "(stereo not given)", "values": [{"measurement": "Kd", "setting": "[3]", "result": 25, "unit": "µM"}, {"measurement": "Kd", "setting": "[1]", "result": 33, "unit": "µM"}]}
{"smiles": "Fc1ccc2[nH]c3c(c2c1)CCCC3NCC1CCNC1", "note": "(stereo not given) [listing 1 of 3 here]", "values": [{"measurement": "K", "setting": "[4]", "result": "0.22 s⁻¹ and 0.33 s⁻¹"}]}
{"smiles": "CC(C)C[C@H](N)CC(=O)NC1CCCc2c1[nH]c1ccc(F)cc21", "note": "(stereo not given in full) [listing 2 of 3 here]", "values": [{"measurement": "Kd", "setting": "[3]", "result": 11, "unit": "µM"}]}
{"smiles": "Fc1ccc2[nH]c3c(c2c1)CCCC3NCCC1CCCNC1", "note": "(stereo not given) [listing 1 of 3 here]", "values": [{"measurement": "Kd", "setting": "[2]", "result": 18, "unit": "µM"}, {"measurement": "Kd", "setting": "[1]", "result": 24, "unit": "µM"}]}
{"smiles": "O=C(NC1CCCc2c1[nH]c1ccc(F)cc21)[C@@H]1C=CCN1", "note": "(stereo not given in full) [listing 1 of 3 here]", "values": [{"measurement": "K", "setting": "[4]", "result": "0.13 s⁻¹ and 0.22 s⁻¹"}]}
{"smiles": "CC(C)C[C@H](N)CC(=O)NC1CCCc2c1[nH]c1ccc(F)cc21", "note": "(stereo not given in full) [listing 3 of 3 here]", "values": [{"measurement": "K", "setting": "[4]", "result": "0.26 s⁻¹ and 0.27 s⁻¹"}]}
{"smiles": "O=C(NC1CCCc2c1[nH]c1ccc(F)cc21)C1CCNC1", "note": "(stereo not given)", "values": [{"measurement": "Kd", "setting": "[3]", "result": 31, "unit": "µM"}, {"measurement": "Kd", "setting": "[1]", "result": 54, "unit": "µM"}]}
{"smiles": "CC(=O)NC1CCCc2c1[nH]c1ccc(F)cc21", "note": "(stereo not given)", "values": [{"measurement": "Kd", "setting": "[5]", "result": 150, "unit": "µM"}, {"measurement": "Kd", "setting": "[3]", "result": 260, "unit": "µM"}]}
{"smiles": "Fc1ccc2[nH]c3c(c2c1)CCCC3NCCC1CCCNC1", "note": "(stereo not given) [listing 2 of 3 here]", "values": [{"measurement": "Kd", "setting": "[3]", "result": 7.8, "unit": "µM"}]}
{"smiles": "Fc1ccc2[nH]c3c(c2c1)CCCC3NCC1CCNCC1", "note": "(stereo not given) [listing 2 of 3 here]", "values": [{"measurement": "K", "setting": "[4]", "result": "0.3 s⁻¹ and 0.49 s⁻¹"}]}
{"smiles": "Fc1ccc2[nH]c3c(c2c1)CCCC3NCC1CCNCC1", "note": "(stereo not given) [listing 3 of 3 here]", "values": [{"measurement": "Kd", "setting": "[3]", "result": 17, "unit": "µM"}]}
{"smiles": "Fc1ccc2[nH]c3c(c2c1)CCCC3NCC1CCNC1", "note": "(stereo not given) [listing 2 of 3 here]", "values": [{"measurement": "Kd", "setting": "[3]", "result": 11, "unit": "µM"}]}
{"smiles": "CC(C)(C)OC(=O)N1CCC(CNC2CCCc3c2[nH]c2ccc(F)cc32)CC1", "note": "(stereo not given)", "values": [{"measurement": "Kd", "setting": "[5]", "result": 31, "unit": "µM"}, {"measurement": "Kd", "setting": "[3]", "result": 86, "unit": "µM"}]}
{"smiles": "Fc1ccc2[nH]c3c(c2c1)CCCC3NCC1CCNC1", "note": "(stereo not given) [listing 3 of 3 here]", "values": [{"measurement": "Kd", "setting": "[2]", "result": 68, "unit": "µM"}, {"measurement": "Kd", "setting": "[1]", "result": 93, "unit": "µM"}]}
{"smiles": "Fc1ccc2[nH]c3c(c2c1)CCCC3NCCC1CCCNC1", "note": "(stereo not given) [listing 3 of 3 here]", "values": [{"measurement": "K", "setting": "[4]", "result": 0.28, "unit": "s⁻¹"}]}
{"smiles": "O=C(NC1CCCc2c1[nH]c1ccc(F)cc21)[C@@H]1C=CCN1", "note": "(stereo not given in full) [listing 2 of 3 here]", "values": [{"measurement": "Kd", "setting": "[5]", "result": 64, "unit": "µM"}]}
{"smiles": "OC1CCCc2c1[nH]c1ccccc21", "note": "(stereo not given)", "values": [{"measurement": "Kd", "setting": "[5]", "result": 230, "unit": "µM"}, {"measurement": "Kd", "setting": "[3]", "result": 380, "unit": "µM"}]}
{"smiles": "O=C(NC1CCCc2c1[nH]c1ccc(F)cc21)[C@@H]1C=CCN1", "note": "(stereo not given in full) [listing 3 of 3 here]", "values": [{"measurement": "Kd", "setting": "[3]", "result": 47, "unit": "µM"}]}
{"smiles": "CC(C)(C)OC(=O)N1CCC(CNC2CCCc3c2[nH]c2ccc(F)cc32)C1", "note": "(stereo not given)", "values": [{"measurement": "Kd", "setting": "[5]", "result": 30, "unit": "µM"}, {"measurement": "Kd", "setting": "[3]", "result": 93, "unit": "µM"}]}
